Entries after “also recorded” stand apart in the source; their conditions may differ. Square brackets hold non-standard residues; d marks the D form. Peptide text beside a SMILES is read from it. hArg = N=C(N)NCCCC[C@H](N)C(=O)O; Aib = CC(C)(N)C(=O)O
Assays:
[1] = Plasma cAMP in mice after subcutaneous injection; type: in vivo
Method: FIGS. 9A-9D are graphs showing in vivo plasma cAMP levels in mice treated with PTH analogs. Wild-type mice were injected subcutaneously with vehicle (0.9% NaCl/0.05% Tween-20), or vehicle containing a PTH peptide at a dose-level of 10 to 1,000 nmol of peptide per kg of body weight, and at indicated times after injection, blood was withdrawn from the tail vein, and the amount of cAMP in the resulting plasma was quantified by radioimmuno assay. Each curve corresponds to a peptide at a defined concentration, as indicated in the graph keys. The plasma cAMP concentrations are plotted as picomole per μl plasma.
(§1) Wild-type mice were injected subcutaneously with vehicle (0.9% NaCl/0.05% Tween-20), or vehicle containing a PTH peptide so as to achieve a concentration ranging from 10 to 1000 nmol/kg of body weight. At the indicated times after injection, blood was withdrawn from the tail vein, and the amount of cAMP in the resulting plasma was quantified by radioimmuno assay (FIGS. 9A-9D).
as §1, with “at” for “so as to achieve”, “dose level of” for “concentration ranging from”, “At” for “At the”, “assay. Ionized calcium in serum was measured as above and phosphate was measured by a U.V. spectroscopic kit assay.” for “assay (FIGS. 9A-9D).”

[2] = tested on: opossum kidney (OK) cell line; assay: Phosphate uptake inhibition in opossum kidney cells; type: cell-based; details: 10 minute exposure, 1×10^−7 M
Method: Data are means (±s.e.m.) of two experiments, each performed in duplicate.
Inhibition of phosphate uptake was assessed using the opossum kidney (OK) cell line, which are derived from the renal proximal tubule.
Cells were treated for 10 minutes at 37° C. with media (vehicle) or media containing a peptide ligand (1×10^−7 M); then (t=0), the cells were then rinsed three times with media and incubated in alone at 37° C. for varying times. At each time point, ^32PO4 was then added to the media, and after five minutes of incubation, the cells were washed, lysed, and the lysate was counted for ^32P beta radioactivity by liquid scintillation counting.

[3] = Plasma phosphate in mice (20 nmol/kg); type: in vivo
From the text: (§2) To impair PLC signaling, we replaced alanine at position 1 of M-PTH(1-28) with tryptophan, in accordance with findings of Bisello and colleagues (J Biol Chem 277:38524-30, 2002) showing that such bulky substitutions at this position selectively impair PLC signaling.

[4] = tested on: LLC-PK1 cells expressing NaPi-IIc transporter and the rat PTHR; assay: 32P uptake in LLC-PK1 cells expressing NaPi-IIc transporter and rat PTHR; type: cell-based
From the text: as §2

[5] = tested on: NaPi-IIc; assay: NaPi-IIc immunostaining in renal PT cells of injected mice; type: in vivo; details: interval 4 to 6 h
From the text: as §2

[6] = biological target: T1, ROS 17/2.8 cells (endogenous rat PTHR) (Rattus norvegicus, UniProt P25961); assay: Acute cAMP response in ROS 17/2.8 rat osteoblastic cells; type: cell-based; details: 10^−7 M, hPTH(1-28) 10^−6 M, basal 3.7±0.4
T1 construct: the rat osteoblastic cell line ROS17/2.8, which endogenously expresses the rat PTHR; endogenous in cells; host or cells: ROS 17/2.8 rat osteosarcoma cells (membranes or intact cells)
T1 sequence (P25961 27-591): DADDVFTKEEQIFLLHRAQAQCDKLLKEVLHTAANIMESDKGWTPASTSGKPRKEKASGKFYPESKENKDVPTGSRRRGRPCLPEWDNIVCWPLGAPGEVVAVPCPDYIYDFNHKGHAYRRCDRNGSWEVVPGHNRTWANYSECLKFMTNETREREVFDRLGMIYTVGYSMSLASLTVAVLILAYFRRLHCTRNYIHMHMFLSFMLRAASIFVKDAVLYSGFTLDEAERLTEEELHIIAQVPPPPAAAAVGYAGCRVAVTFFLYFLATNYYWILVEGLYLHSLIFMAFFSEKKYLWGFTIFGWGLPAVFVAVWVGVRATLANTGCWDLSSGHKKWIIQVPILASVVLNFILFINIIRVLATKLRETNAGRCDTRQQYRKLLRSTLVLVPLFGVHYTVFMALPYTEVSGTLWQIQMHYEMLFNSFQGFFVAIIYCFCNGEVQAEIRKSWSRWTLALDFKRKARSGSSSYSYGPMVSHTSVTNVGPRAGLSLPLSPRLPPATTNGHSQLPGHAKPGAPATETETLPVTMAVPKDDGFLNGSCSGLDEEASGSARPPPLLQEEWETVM
Method: The resulting intracellular cAMP formed was quantified by radioimmuno assay. […] Curve fits were obtained by non-linear regression analysis.
The data in FIG. 21B are expressed as a percent of the maximum response observed for each ligand, determined by incubating the cells with ligand in the presence of IBMX for 10 minutes (no ligand wash-out).

[7] = Plasma phosphate and serum ionized calcium in mice after subcutaneous injection; type: in vivo; details: 50 nmol/kg s.c.
Method: FIGS. 10A and 10B are graphs showing in vivo plasma phosphate and serum ionized calcium levels in mice treated with PTH analogs. […] Serum ionized calcium concentrations were determined using a Chiron Diagnostics Model 634 Ca^++/pH analyzer. Data in A are means (±s.e.m.) of one experiment using six mice (n=6) for each injection condition; similar results were obtained in three other experiments. Data in B are means (±s.e.m.) of two experiments, each performed using triplicate mice (n=3) for each injection condition.
The mice were further analyzed for changes in plasma phosphate and serum ionized calcium concentrations. […] At the indicated times after injection, blood was withdrawn from the tail vein and the concentrations of plasma phosphate (FIG. 10A) and serum ionized calcium (FIG. 10B) were determined. Serum ionized calcium concentrations were determined using a Chiron Diagnostics Model 634 Ca^++/pH analyzer. Plasma phosphate concentrations were measured using a Phosphorous Liqui-UV assay kit (StanBio Laboratory, Boerne, Tex.).
as §1, with “at” for “so as to achieve”, “dose level of” for “concentration ranging from”, “At” for “At the”, “assay. […]” for “assay (FIGS. 9A-9D).”

[8] = tested on: NaPi-IIa; assay: NaPi-IIa staining in renal PT cells of injected mice; details: mouse, in vivo
From the text: To help elucidate further the signaling mechanisms by which PTH ligands regulate renal phosphate transport, we developed a derivative of M-PTH(1-28) that is defective for PLC/PKC signaling, yet retains potent cAMP/PKA signaling activity. Such a peptide allows for study of the relative roles of the PKA and PKC signaling pathways in modulating the function and surface expression of the Pi transporters NaPi-IIa and NaPi-IIc in proximal tubule (PT) cells. The analog M-PTH(1-28) (M=Ala^1,Aib^3,Gln^10, Har^11,Trp^14,Arg^19), a potent agonist for cAMP and IP3 signaling pathways, induces, when injected into mice, prolonged hypophosphatemic and hypercalcemic effects.
as §2

[9] = biological target: T2, PTHR lacking the extracellular N-terminal (N) domain (delNT) (Homo sapiens, UniProt Q03431); assay: cAMP activity in cells expressing PTHR lacking the N domain (delNT); type: cell-based
T2 construct: expressed in transfected cells
T2 sequence (Q03431 with tags, fused parts or gaps limits assumed): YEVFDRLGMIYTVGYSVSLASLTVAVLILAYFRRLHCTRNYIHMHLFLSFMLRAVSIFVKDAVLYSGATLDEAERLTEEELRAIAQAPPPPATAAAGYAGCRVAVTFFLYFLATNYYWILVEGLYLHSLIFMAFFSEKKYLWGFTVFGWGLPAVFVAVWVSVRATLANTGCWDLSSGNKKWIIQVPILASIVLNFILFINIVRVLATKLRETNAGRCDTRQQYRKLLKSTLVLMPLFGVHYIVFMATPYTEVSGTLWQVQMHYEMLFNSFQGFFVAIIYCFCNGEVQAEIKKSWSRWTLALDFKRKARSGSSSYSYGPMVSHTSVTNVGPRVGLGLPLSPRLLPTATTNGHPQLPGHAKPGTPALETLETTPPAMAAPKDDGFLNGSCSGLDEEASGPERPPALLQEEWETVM

[10] = biological target: T3, rat PTHR (Rattus norvegicus, UniProt P25961); assay: IP3 formation in HEK-293 cells transfected with rat PTHR; type: cell-based; details: versus M-PTH(1-28)
T3 sequence (P25961 27-591): T1 sequence (P25961 27-591)
From the text: as §2

[11] = biological target: T3, rat PTHR; assay: cAMP formation in HEK-293 cells transfected with rat PTHR; type: cell-based; details: versus M-PTH(1-28)
From the text: as §2

[12] = tested on: MC3T3-E1 cells; assay: Prolonged cAMP response after ligand wash-out in MC3T3-E1 cells; type: cell-based
From the text: as §2

Compound | dose producing comparable increase in plasma cAMP [1] [nmol/kg] | duration of phosphate uptake inhibition, in words [2] | time of maximal suppression of plasma phosphate [3] [h] | time of recovery of plasma phosphate to vehicle control levels [3] [h] | ^32P uptake, in words [4] | NaPi-IIc immunostaining, in words [5] | maximum cAMP response (ligand with IBMX 10 minutes, no wash-out) [6] [pmole/well] | duration of serum calcium and plasma phosphate responses, in words [7] | apical and cytoplasmic NaPi-IIa staining, in words [8] | cAMP potency on delNT compared with PTH counterparts, in words [9] | fold less potent than parent peptide for stimulating IP3 formation [10] | potency for stimulating cAMP formation, in words [11] | cAMP response after ligand wash-out, in words [12]
CC[C@H](C)[C@H](NC(=O)[C@H](CCC(=O)O)NC(=O)C(C)(C)NC(=O)[C@@H](NC(=O)[C@H](C)N)C(C)C)C(=O)N[C@@H](CCC(N)=O)C(=O)N[C@@H](CC(C)C)C(=O)N[C@@H](CCSC)C(=O)N[C@@H](Cc1c[nH]cn1)C(=O)N[C@@H](CCC(N)=O)C(=O)N[C@@H](CCCCNC(=N)N)C(=O)N[C@@H](C)C(=O)N[C@@H](CCCCN)C(=O)N[C@@H](Cc1c[nH]c2ccccc12)C(=O)N[C@@H](CC(C)C)C(=O)N[C@@H](CC(N)=O)C(=O)N[C@@H](CO)C(=O)N[C@@H](CCSC)C(=O)N[C@@H](CCCNC(=N)N)C(=O)N[C@@H](CCCNC(=N)N)C(=O)N[C@H](C(=O)N[C@@H](CCC(=O)O)C(=O)N[C@@H](Cc1c[nH]c2ccccc12)C(=O)N[C@@H](CC(C)C)C(=O)N[C@@H](CCCNC(=N)N)C(=O)N[C@@H](CCCCN)C(=O)N[C@@H](CCCCN)C(=O)N[C@@H](CC(C)C)C(N)=O)C(C)C [[A^1,Aib^3,M]-PTH(1-28), [Ala^1,12,Aib^3,Gln^10,homoarginine^11,Trp^14,Arg^19]human(h)PTH(1-28)NH2] (H-AV[Aib]EIQLMHQ[hArg]AKWLNSMRRVEWLRKKL-NH2; N-terminus assumed) | 50 | dramatically prolonged inhibitory effect on phosphate uptake | 2 | 6 | inhibited | reduced | 71±1 | more prolonged than those to hPTH(1-34)NH2 | prolonged reductions in NaPi-IIa immunoreactivity; also recorded: remained reduced for at least six hours |  |  |  | 
PTHrP(1-14) (AVSEHQLLHDKGKS) |  |  |  |  |  |  |  |  |  | much less potent for cAMP activity |  |  | 
Trp^1-M-PTH(1-28) |  |  | 2 | 6 | failed to inhibit | unchanged |  |  | remained reduced for at least six hours |  | at least 100 fold | about as potent as M-PTH(1-28) | retained the capacity to produce a prolonged cAMP response
